{"source": "patent US20240239861A1", "about": "“GLUCAGON-RECEPTOR SELECTIVE POLYPEPTIDES AND METHODS OF USE THEREOF” (i2O Therapeutics, Inc., priority 2016, published 2024)", "key": {"human GLP-1R": {"target": "human GLP-1R (Homo sapiens, UniProt P43220)", "sequence (P43220 24-463)": "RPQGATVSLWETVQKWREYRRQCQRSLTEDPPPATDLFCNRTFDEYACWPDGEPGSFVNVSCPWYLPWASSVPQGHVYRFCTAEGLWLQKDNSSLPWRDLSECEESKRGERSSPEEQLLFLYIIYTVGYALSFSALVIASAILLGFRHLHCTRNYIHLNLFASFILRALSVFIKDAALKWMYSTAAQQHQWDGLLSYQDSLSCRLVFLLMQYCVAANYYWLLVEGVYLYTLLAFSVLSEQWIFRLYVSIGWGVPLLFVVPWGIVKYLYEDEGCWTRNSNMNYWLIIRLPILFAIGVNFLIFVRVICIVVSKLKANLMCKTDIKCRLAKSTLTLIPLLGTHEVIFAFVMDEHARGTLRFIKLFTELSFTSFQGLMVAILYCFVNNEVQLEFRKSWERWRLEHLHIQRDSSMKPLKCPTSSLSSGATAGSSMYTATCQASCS", "assay": "Peptide-receptor mediated cAMP accumulation (LANCE Ultra cAMP) in CHO-K1 cells transfected with human GLP-1R", "assay_type": "cell-based", "conditions": "hGLP1 pEC50 (cAMP mean (n = 3): 11 point curve starting at 1 nM, Table 3)"}, "human GCGR": {"target": "human GCGR (Homo sapiens, UniProt P47871)", "sequence (P47871 26-477)": "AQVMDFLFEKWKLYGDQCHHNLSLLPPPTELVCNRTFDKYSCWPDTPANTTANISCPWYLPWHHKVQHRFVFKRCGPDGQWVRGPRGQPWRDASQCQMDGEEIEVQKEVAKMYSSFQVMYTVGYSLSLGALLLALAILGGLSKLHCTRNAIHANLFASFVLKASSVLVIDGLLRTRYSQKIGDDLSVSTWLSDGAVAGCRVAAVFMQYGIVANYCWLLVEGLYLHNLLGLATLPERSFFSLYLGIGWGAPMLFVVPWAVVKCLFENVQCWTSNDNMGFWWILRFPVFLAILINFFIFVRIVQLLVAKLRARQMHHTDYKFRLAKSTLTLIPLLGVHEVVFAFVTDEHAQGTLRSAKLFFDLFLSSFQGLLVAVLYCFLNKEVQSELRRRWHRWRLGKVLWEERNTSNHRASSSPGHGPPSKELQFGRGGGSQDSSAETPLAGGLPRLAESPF", "assay": "Peptide-receptor mediated cAMP accumulation (LANCE Ultra cAMP) in CHO-K1 cells transfected with human GCGR", "assay_type": "cell-based", "conditions": "Table 3"}}, "note": "Where a SMILES comes first, the peptide text is derived from it. [ ]: non-standard residue; d: D form. Aib = CC(C)(N)C(=O)O"}
{"smiles": "CC(C)C[C@H](NC(=O)[C@H](Cc1ccc(O)cc1)NC(=O)[C@H](CCCCN)NC(=O)[C@H](CO)NC(=O)[C@H](Cc1ccc(O)cc1)NC(=O)[C@H](CC(=O)O)NC(=O)[C@H](CO)NC(=O)[C@@H](NC(=O)[C@H](Cc1ccccc1)NC(=O)[C@@H](NC(=O)CNC(=O)[C@H](Cc1c[nH]cn1)NC(=O)[C@H](CO)NC(=O)[C@@H](N)Cc1ccc(O)cc1)[C@@H](C)O)[C@@H](C)O)C(=O)N[C@@H](CC(=O)O)C(=O)NC(C)(C)C(=O)N[C@@H](CCCCN)C(=O)N[C@@H](CCCNC(=N)N)C(=O)N[C@@H](C)C(=O)N[C@@H](CCC(N)=O)C(=O)N[C@@H](CCC(=O)O)C(=O)N[C@@H](Cc1ccccc1)C(=O)N[C@H](C(=O)NC(C)(C)C(=O)N[C@@H](Cc1c[nH]c2ccccc12)C(=O)N[C@@H](CC(C)C)C(=O)N[C@@H](CCC(=O)O)C(=O)N[C@@H](CC(=O)O)C(=O)N[C@@H](CCC(=O)O)C(=O)N[C@@H](CCC(=O)O)C(=O)N[C@@H](CCC(=O)O)C(=O)N1CCC[C@H]1C(=O)N[C@@H](CO)C(=O)N[C@@H](CO)C(=O)NCC(=O)N[C@@H](C)C(=O)N1CCC[C@H]1C(=O)N1CCC[C@H]1C(=O)N1CCC[C@H]1C(=O)N[C@@H](CO)C(=O)O)C(C)C", "note": "[Compound A11] (H-YSHGTFTSDYSKYLD[Aib]KRAQEFV[Aib]WLEDEEEPSSGAPPPS-OH; N-terminus assumed)", "values": [{"measurement": "EC50", "setting": "human GLP-1R", "value": "> 1000", "unit": "pM"}, {"measurement": "EC50", "setting": "human GCGR", "value": 6.31, "unit": "pM"}]}
{"smiles": "CC(C)C[C@H](NC(=O)[C@H](Cc1ccc(O)cc1)NC(=O)[C@H](CCCCN)NC(=O)[C@H](CO)NC(=O)[C@H](Cc1ccc(O)cc1)NC(=O)[C@H](CC(=O)O)NC(=O)[C@H](CO)NC(=O)[C@@H](NC(=O)[C@H](Cc1ccccc1)NC(=O)[C@@H](NC(=O)CNC(=O)[C@H](Cc1c[nH]cn1)NC(=O)[C@H](CO)NC(=O)[C@@H](N)Cc1ccc(O)cc1)[C@@H](C)O)[C@@H](C)O)C(=O)N[C@@H](CC(=O)O)C(=O)NC(C)(C)C(=O)N[C@@H](CCCCN)C(=O)N[C@@H](CCCNC(=N)N)C(=O)N[C@@H](C)C(=O)N[C@@H](CCC(N)=O)C(=O)N[C@@H](CCC(=O)O)C(=O)N[C@@H](Cc1ccccc1)C(=O)N[C@H](C(=O)NC(C)(C)C(=O)N[C@@H](Cc1c[nH]c2ccccc12)C(=O)N[C@@H](CC(C)C)C(=O)N[C@@H](CCC(=O)O)C(=O)N[C@@H](CC(=O)O)C(=O)N[C@@H](CCC(=O)O)C(=O)N[C@@H](CO)C(=O)N[C@@H](CO)C(=O)NCC(=O)N[C@@H](C)C(=O)N1CCC[C@H]1C(=O)N1CCC[C@H]1C(=O)N1CCC[C@H]1C(=O)N[C@@H](CO)C(=O)O)C(C)C", "note": "[Compound A14] (H-YSHGTFTSDYSKYLD[Aib]KRAQEFV[Aib]WLEDESSGAPPPS-OH; N-terminus assumed)", "values": [{"measurement": "EC50", "setting": "human GLP-1R", "value": "> 1000", "unit": "pM"}, {"measurement": "EC50", "setting": "human GCGR", "value": 1, "unit": "pM"}]}
{"smiles": "CC(C)C[C@H](NC(=O)[C@H](Cc1ccc(O)cc1)NC(=O)[C@H](CCCCN)NC(=O)[C@H](CO)NC(=O)[C@H](Cc1ccc(O)cc1)NC(=O)[C@H](CC(=O)O)NC(=O)[C@H](CO)NC(=O)[C@@H](NC(=O)[C@H](Cc1ccccc1)NC(=O)[C@@H](NC(=O)CNC(=O)[C@H](Cc1c[nH]cn1)NC(=O)[C@H](CO)NC(=O)[C@@H](N)Cc1ccc(O)cc1)[C@@H](C)O)[C@@H](C)O)C(=O)N[C@@H](CC(=O)O)C(=O)NC(C)(C)C(=O)N[C@@H](CO)C(=O)N[C@@H](CCCNC(=N)N)C(=O)N[C@@H](C)C(=O)N[C@@H](CCC(N)=O)C(=O)N[C@@H](CCC(=O)O)C(=O)N[C@@H](Cc1ccccc1)C(=O)N[C@H](C(=O)NC(C)(C)C(=O)N[C@@H](Cc1c[nH]c2ccccc12)C(=O)N[C@@H](CC(C)C)C(=O)N[C@@H](CCC(=O)O)C(=O)N[C@@H](CC(=O)O)C(=O)N[C@@H](CCC(=O)O)C(=O)N1CCC[C@H]1C(=O)N[C@@H](CO)C(=O)N[C@@H](CO)C(=O)NCC(=O)N[C@@H](C)C(=O)N1CCC[C@H]1C(=O)N1CCC[C@H]1C(=O)N1CCC[C@H]1C(=O)N[C@@H](CO)C(=O)O)C(C)C", "note": "[Compound A15] (H-YSHGTFTSDYSKYLD[Aib]SRAQEFV[Aib]WLEDEPSSGAPPPS-OH; N-terminus assumed)", "values": [{"measurement": "EC50", "setting": "human GLP-1R", "value": "> 1000", "unit": "pM"}, {"measurement": "EC50", "setting": "human GCGR", "value": 3.98, "unit": "pM"}]}
{"smiles": "CC(C)C[C@H](NC(=O)[C@H](Cc1ccc(O)cc1)NC(=O)[C@H](CCCCN)NC(=O)[C@H](CO)NC(=O)[C@H](Cc1ccc(O)cc1)NC(=O)[C@H](CC(=O)O)NC(=O)[C@H](CO)NC(=O)[C@@H](NC(=O)[C@H](Cc1ccccc1)NC(=O)[C@@H](NC(=O)CNC(=O)[C@H](Cc1c[nH]cn1)NC(=O)[C@H](CO)NC(=O)[C@@H](N)Cc1ccc(O)cc1)[C@@H](C)O)[C@@H](C)O)C(=O)N[C@@H](CC(=O)O)C(=O)NC(C)(C)C(=O)N[C@H](C(=O)N[C@@H](CCCNC(=N)N)C(=O)N[C@@H](C)C(=O)N[C@@H](CCC(N)=O)C(=O)N[C@@H](CCC(=O)O)C(=O)N[C@@H](Cc1ccccc1)C(=O)N[C@H](C(=O)NC(C)(C)C(=O)N[C@@H](Cc1c[nH]c2ccccc12)C(=O)N[C@@H](CC(C)C)C(=O)N[C@@H](CCC(=O)O)C(=O)N[C@@H](CC(=O)O)C(=O)N[C@@H](CCC(=O)O)C(=O)N1CCC[C@H]1C(=O)N[C@@H](CO)C(=O)N[C@@H](CO)C(=O)NCC(=O)N[C@@H](C)C(=O)N1CCC[C@H]1C(=O)N1CCC[C@H]1C(=O)N1CCC[C@H]1C(=O)N[C@@H](CO)C(=O)O)C(C)C)[C@@H](C)O", "note": "[Compound A16] (H-YSHGTFTSDYSKYLD[Aib]TRAQEFV[Aib]WLEDEPSSGAPPPS-OH; N-terminus assumed)", "values": [{"measurement": "EC50", "setting": "human GLP-1R", "value": "> 1000", "unit": "pM"}, {"measurement": "EC50", "setting": "human GCGR", "value": 1.26, "unit": "pM"}]}
{"smiles": "CC(C)C[C@H](NC(=O)[C@H](Cc1ccc(O)cc1)NC(=O)[C@H](CCCCN)NC(=O)[C@H](CO)NC(=O)[C@H](Cc1ccc(O)cc1)NC(=O)[C@H](CC(=O)O)NC(=O)[C@H](CO)NC(=O)[C@@H](NC(=O)[C@H](Cc1ccccc1)NC(=O)[C@@H](NC(=O)CNC(=O)[C@H](Cc1c[nH]cn1)NC(=O)[C@H](CO)NC(=O)[C@@H](N)Cc1ccc(O)cc1)[C@@H](C)O)[C@@H](C)O)C(=O)N[C@@H](CC(=O)O)C(=O)NC(C)(C)C(=O)N[C@@H](CCC(=O)O)C(=O)N[C@@H](CCCNC(=N)N)C(=O)N[C@@H](C)C(=O)N[C@@H](CCC(N)=O)C(=O)N[C@@H](CCC(=O)O)C(=O)N[C@@H](Cc1ccccc1)C(=O)N[C@H](C(=O)NC(C)(C)C(=O)N[C@@H](Cc1c[nH]c2ccccc12)C(=O)N[C@@H](CC(C)C)C(=O)N[C@@H](CCC(=O)O)C(=O)N[C@@H](CC(=O)O)C(=O)N[C@@H](CCC(=O)O)C(=O)N1CCC[C@H]1C(=O)N[C@@H](CO)C(=O)N[C@@H](CO)C(=O)NCC(=O)N[C@@H](C)C(=O)N1CCC[C@H]1C(=O)N1CCC[C@H]1C(=O)N1CCC[C@H]1C(=O)N[C@@H](CO)C(=O)O)C(C)C", "note": "[Compound A17] (H-YSHGTFTSDYSKYLD[Aib]ERAQEFV[Aib]WLEDEPSSGAPPPS-OH)", "values": [{"measurement": "EC50", "setting": "human GLP-1R", "value": "> 1000", "unit": "pM"}, {"measurement": "EC50", "setting": "human GCGR", "value": 7.94, "unit": "pM"}]}
{"smiles": "CC(C)C[C@H](NC(=O)[C@H](Cc1c[nH]c2ccccc12)NC(=O)[C@H](CCCCN)NC(=O)[C@H](CO)NC(=O)[C@H](Cc1ccc(O)cc1)NC(=O)[C@H](CC(=O)O)NC(=O)[C@H](CO)NC(=O)[C@@H](NC(=O)[C@H](Cc1ccccc1)NC(=O)[C@@H](NC(=O)CNC(=O)[C@H](Cc1c[nH]cn1)NC(=O)[C@H](CO)NC(=O)[C@@H](N)Cc1ccc(O)cc1)[C@@H](C)O)[C@@H](C)O)C(=O)N[C@@H](CC(=O)O)C(=O)NC(C)(C)C(=O)N[C@@H](CO)C(=O)N[C@@H](CCCNC(=N)N)C(=O)N[C@@H](C)C(=O)N[C@@H](CCC(N)=O)C(=O)N[C@@H](CCC(=O)O)C(=O)N[C@@H](Cc1ccccc1)C(=O)N[C@H](C(=O)NC(C)(C)C(=O)N[C@@H](Cc1c[nH]c2ccccc12)C(=O)N[C@@H](CC(C)C)C(=O)N[C@@H](CCC(=O)O)C(=O)N[C@@H](CC(=O)O)C(=O)N[C@@H](CCC(=O)O)C(=O)N1CCC[C@H]1C(=O)N[C@@H](CO)C(=O)N[C@@H](CO)C(=O)NCC(=O)N[C@@H](C)C(=O)N1CCC[C@H]1C(=O)N1CCC[C@H]1C(=O)N1CCC[C@H]1C(=O)N[C@@H](CO)C(=O)O)C(C)C", "note": "[Compound A19] (H-YSHGTFTSDYSKWLD[Aib]SRAQEFV[Aib]WLEDEPSSGAPPPS-OH; N-terminus assumed)", "values": [{"measurement": "EC50", "setting": "human GLP-1R", "value": "> 1000", "unit": "pM"}, {"measurement": "EC50", "setting": "human GCGR", "value": 10, "unit": "pM"}]}
{"smiles": "CC(C)C[C@H](NC(=O)[C@H](Cc1ccc(O)cc1)NC(=O)[C@H](CCCCN)NC(=O)[C@H](CO)NC(=O)[C@H](Cc1ccc(O)cc1)NC(=O)[C@H](CC(=O)O)NC(=O)[C@H](CO)NC(=O)[C@@H](NC(=O)[C@H](Cc1ccccc1)NC(=O)[C@@H](NC(=O)CNC(=O)[C@H](Cc1c[nH]cn1)NC(=O)[C@H](CO)NC(=O)[C@@H](N)Cc1ccc(O)cc1)[C@@H](C)O)[C@@H](C)O)C(=O)N[C@@H](CC(=O)O)C(=O)NC(C)(C)C(=O)N[C@@H](CCCCN)C(=O)N[C@@H](CCCNC(=N)N)C(=O)N[C@@H](C)C(=O)N[C@@H](CCC(N)=O)C(=O)N[C@@H](CCC(=O)O)C(=O)N[C@@H](Cc1ccccc1)C(=O)N[C@H](C(=O)NC(C)(C)C(=O)N[C@@H](Cc1c[nH]c2ccccc12)C(=O)N[C@@H](CC(C)C)C(=O)N[C@@H](CCC(=O)O)C(=O)N[C@@H](CC(=O)O)C(=O)N[C@@H](CCC(=O)O)C(=O)N1CCC[C@H]1C(=O)N[C@@H](CO)C(=O)N[C@@H](CO)C(=O)NCC(=O)N[C@@H](CCC(=O)O)C(=O)N1CCC[C@H]1C(=O)N1CCC[C@H]1C(=O)N1CCC[C@H]1C(=O)N[C@@H](CO)C(=O)O)C(C)C", "note": "[Compound A21] (H-YSHGTFTSDYSKYLD[Aib]KRAQEFV[Aib]WLEDEPSSGEPPPS-OH; N-terminus assumed)", "values": [{"measurement": "EC50", "setting": "human GLP-1R", "value": "> 1000", "unit": "pM"}, {"measurement": "EC50", "setting": "human GCGR", "value": 7.94, "unit": "pM"}]}
